Measured values: PubChem BioAssay (NCI)
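GI50: concentration for 50% inhibition of growth. TGI denotes the concentration required for complete inhibition of growth.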

How the values were obtained:
Experiment in all cases: NCI anticancer screen, dose series, 384-well format
MDA-MB-468 breast = system: MDA-MB-468 breast
HCC-2998 colon = system: HCC-2998 colon
SF-268 CNS = system: SF-268 CNS
TK-10 renal = system: TK-10 renal
SW-620 colon = system: SW-620 colon
HOP-92 NSCLC = system: HOP-92 NSCLC
SK-OV-3 ovarian = system: SK-OV-3 ovarian
SK-MEL-5 melanoma = system: SK-MEL-5 melanoma
CAKI-1 renal = system: CAKI-1 renal
NCI-H460 NSCLC = system: NCI-H460 NSCLC
ACHN renal = system: ACHN renal
786-0 renal = system: 786-0 renal
HS 578T breast = system: HS 578T breast
BT-549 breast = system: BT-549 breast
CCRF-CEM leukemia = system: CCRF-CEM leukemia
NCI-H522 lung = system: NCI-H522 lung
OVCAR-3 ovarian = system: OVCAR-3 ovarian
SR leukemia = system: SR leukemia
MDA-MB-435 melanoma = system: MDA-MB-435 melanoma
SN12C renal = system: SN12C renal
IGROV1 ovarian = system: IGROV1 ovarian
MCF7 breast = system: MCF7 breast
A549 NSCLC = system: A549 NSCLC
UACC-257 melanoma = system: UACC-257 melanoma
MALME-3M melanoma = system: MALME-3M melanoma
DU-145 prostate = system: DU-145 prostate
UACC-62 melanoma = system: UACC-62 melanoma
HL-60(TB) leukemia = system: HL-60(TB) leukemia
EKVX NSCLC = system: EKVX NSCLC
KM12 colon = system: KM12 colon
NCI-H226 lung = system: NCI-H226 lung
UO-31 renal = system: UO-31 renal
A498 renal = system: A498 renal
SNB-19 CNS = system: SNB-19 CNS
OVCAR-4 ovarian = system: OVCAR-4 ovarian
RPMI-8226 leukemia = system: RPMI-8226 leukemia
PC-3 prostate = system: PC-3 prostate
NCI/ADR-RES ovarian = system: NCI/ADR-RES ovarian
MOLT-4 leukemia = system: MOLT-4 leukemia
COLO 205 colon = system: COLO 205 colon
OVCAR-8 ovarian = system: OVCAR-8 ovarian
NCI-H23 lung = system: NCI-H23 lung
SNB-75 CNS = system: SNB-75 CNS
SK-MEL-28 melanoma = system: SK-MEL-28 melanoma
T-47D breast = system: T-47D breast
SF-539 CNS = system: SF-539 CNS
HT29 colon = system: HT29 colon
HCT-15 colon = system: HCT-15 colon
K-562 leukemia = system: K-562 leukemia
NCI-H322M lung = system: NCI-H322M lung
SF-295 CNS = system: SF-295 CNS
MDA-MB-231 breast = system: MDA-MB-231 breast
RXF 393 renal = system: RXF 393 renal
HOP-62 NSCLC = system: HOP-62 NSCLC
OVCAR-5 ovarian = system: OVCAR-5 ovarian
LOX IMVI melanoma = system: LOX IMVI melanoma
M14 melanoma = system: M14 melanoma

`N#Cc1cc(F)cc(Oc2ccc(S(=O)(=O)C(F)F)c3c2CC(F)(F)[C@H]3O)c1` gave a GI50 (MDA-MB-468 breast) of 8.94 µM, a TGI (MDA-MB-468 breast) of 26 µM and a GI50 (HCC-2998 colon) of 41.4 µM. It also gave a TGI (HCC-2998 colon) greater than 100 µM, a GI50 (SF-268 CNS) of 48.6 µM and a TGI (SF-268 CNS) greater than 100 µM. It also gave a GI50 (TK-10 renal) of 38.4 µM, a TGI (TK-10 renal) greater than 100 µM and a GI50 (SW-620 colon) of 63.5 µM. For the same compound, the TGI (SW-620 colon) was greater than 100 µM, the GI50 (HOP-92 NSCLC) was 16.3 µM and the TGI (HOP-92 NSCLC) was 52 µM. For the same compound, the GI50 (SK-OV-3 ovarian) was 26.2 µM, the TGI (SK-OV-3 ovarian) was greater than 100 µM and the GI50 (SK-MEL-5 melanoma) was 15.1 µM. For the same compound, the TGI (SK-MEL-5 melanoma) was 29.4 µM, the GI50 (CAKI-1 renal) was 38.8 µM and the TGI (CAKI-1 renal) was greater than 100 µM. It also gave a GI50 (NCI-H460 NSCLC) of 18.1 µM, a TGI (NCI-H460 NSCLC) of 33.9 µM and a GI50 (ACHN renal) of 33.2 µM. It also gave a TGI (ACHN renal) greater than 100 µM, a GI50 ([…]-0 renal) of 31.6 µM and a TGI (786-0 renal) greater than 100 µM. The GI50 (HS 578T breast) was 20 µM, the TGI (HS 578T breast) was 69.8 µM and the GI50 (BT-549 breast) was 21.1 µM. For the same compound, the TGI (BT-549 breast) was 47.2 µM, the GI50 (CCRF-CEM leukemia) was 11.6 µM and the TGI (CCRF-CEM leukemia) was 25.8 µM. For the same compound, the GI50 (NCI-H522 lung) was 19.8 µM, the TGI (NCI-H522 lung) was 61.2 µM and the GI50 (OVCAR-3 ovarian) was 25.1 µM. It also gave a TGI (OVCAR-3 ovarian) of 68.5 µM, a GI50 (SR leukemia) of 15.7 µM and a TGI (SR leukemia) of 30.5 µM. For the same compound, the GI50 (MDA-MB-435 melanoma) was 48.4 µM, the TGI (MDA-MB-435 melanoma) was greater than 100 µM and the GI50 (SN12C renal) was 32.7 µM. It also gave a TGI (SN12C renal) greater than 100 µM, a GI50 (IGROV1 ovarian) of 41.6 µM and a TGI (IGROV1 ovarian) greater than 100 µM. For the same compound, the GI50 (MCF7 breast) was 19.6 µM, the TGI (MCF7 breast) was 55.2 µM and the GI50 (A549 NSCLC) was 26.9 µM. For the same compound, the TGI (A549 NSCLC) was 86.3 µM, the GI50 (UACC-257 melanoma) was 19.2 µM and the TGI (UACC-257 melanoma) was 48.7 µM. It also gave a GI50 (MALME-3M melanoma) of 28.8 µM, a TGI (MALME-3M melanoma) of 93.6 µM and a GI50 (DU-145 prostate) of 26.2 µM. For the same compound, the TGI (DU-145 prostate) was 90.6 µM, the GI50 (UACC-62 melanoma) was 34.9 µM and the TGI (UACC-62 melanoma) was greater than 100 µM. The GI50 (HL-60(TB) leukemia) was 18.4 µM, the TGI (HL-60(TB) leukemia) was 33 µM and the GI50 (EKVX NSCLC) was 27.3 µM. It also gave a TGI (EKVX NSCLC) of 97.3 µM, a GI50 (KM12 colon) of 34.5 µM and a TGI (KM12 colon) greater than 100 µM. It also gave a GI50 (NCI-H226 lung) of 22.7 µM, a TGI (NCI-H226 lung) of 71.8 µM and a GI50 (UO-31 renal) of 36.4 µM. The TGI (UO-31 renal) was greater than 100 µM, the GI50 (A498 renal) was 19.8 µM and the TGI (A498 renal) was 44 µM. For the same compound, the GI50 (SNB-19 CNS) was 48.5 µM, the TGI (SNB-19 CNS) was greater than 100 µM and the GI50 (OVCAR-4 ovarian) was 14.8 µM. The TGI (OVCAR-4 ovarian) was 53.2 µM, the GI50 (RPMI-8226 leukemia) was 11.8 µM and the TGI (RPMI-8226 leukemia) was 28.9 µM. The GI50 (PC-3 prostate) was 29.9 µM, the TGI (PC-3 prostate) was greater than 100 µM and the GI50 (NCI/ADR-RES ovarian) was 16.1 µM. For the same compound, the TGI (NCI/ADR-RES ovarian) was 52 µM, the GI50 (MOLT-4 leukemia) was 13.9 µM and the TGI (MOLT-4 leukemia) was 27.1 µM. It also gave a GI50 (COLO 205 colon) of 38.7 µM, a TGI (COLO 205 colon) greater than 100 µM and a GI50 (OVCAR-8 ovarian) of 28.5 µM. The TGI (OVCAR-8 ovarian) was greater than 100 µM, the GI50 (NCI-H23 lung) was 14.2 µM and the TGI (NCI-H23 lung) was 48.5 µM. The GI50 (SNB-75 CNS) was 34.4 µM, the TGI (SNB-75 CNS) was greater than 100 µM and the GI50 (SK-MEL-28 melanoma) was 53.3 µM. For the same compound, the TGI (SK-MEL-28 melanoma) was greater than 100 µM, the GI50 (T-47D breast) was 14.9 µM and the TGI (T-47D breast) was 67.4 µM. The GI50 (SF-539 CNS) was 33.6 µM, the TGI (SF-539 CNS) was greater than 100 µM and the GI50 (HT29 colon) was 43.9 µM. For the same compound, the TGI (HT29 colon) was greater than 100 µM, the GI50 (HCT-15 colon) was 27.8 µM and the TGI (HCT-15 colon) was greater than 100 µM. For the same compound, the GI50 (K-562 leukemia) was 18.3 µM, the TGI (K-562 leukemia) was greater than 100 µM and the GI50 (NCI-H322M lung) was 39.4 µM. It also gave a TGI (NCI-H322M lung) greater than 100 µM, a GI50 (SF-295 CNS) of 30.2 µM and a TGI (SF-295 CNS) greater than 100 µM. The GI50 (MDA-MB-231 breast) was 25.4 µM, the TGI (MDA-MB-231 breast) was greater than 100 µM and the GI50 (RXF 393 renal) was 21.3 µM. The TGI (RXF 393 renal) was 73.8 µM, the GI50 (HOP-62 NSCLC) was 30 µM and the TGI (HOP-62 NSCLC) was greater than 100 µM. The GI50 (OVCAR-5 ovarian) was 56.4 µM, the TGI (OVCAR-5 ovarian) was greater than 100 µM and the GI50 (LOX IMVI melanoma) was 20 µM. It also gave a TGI (LOX IMVI melanoma) of 43.1 µM, a GI50 (M14 melanoma) of 33.7 µM and a TGI (M14 melanoma) greater than 100 µM.
